We go through two molecules from US12653800B2, “Small molecule inhibitors of TLR2 signaling” (University of Maryland, Baltimore, priority 2015, dated 2026).

Type in all cases: cell-based
For experiment [1], the target named is TLR2/6 (Mus musculus, UniProt Q9QUN7). Kind of experiment: Cytokine mRNA in murine peritoneal macrophages stimulated with TLR2/6 agonists (P2C, zymosan).
The target in experiment [2] is TLR2/1 (Mus musculus, UniProt Q9QUN7). Kind of experiment: Cytokine mRNA/protein in murine peritoneal macrophages stimulated with TLR2/1 agonists (P3C, LTA SA).
Chain of TLR2/1 (Mus musculus, UniProt Q9QUN7) (Q9QUN7 25-784): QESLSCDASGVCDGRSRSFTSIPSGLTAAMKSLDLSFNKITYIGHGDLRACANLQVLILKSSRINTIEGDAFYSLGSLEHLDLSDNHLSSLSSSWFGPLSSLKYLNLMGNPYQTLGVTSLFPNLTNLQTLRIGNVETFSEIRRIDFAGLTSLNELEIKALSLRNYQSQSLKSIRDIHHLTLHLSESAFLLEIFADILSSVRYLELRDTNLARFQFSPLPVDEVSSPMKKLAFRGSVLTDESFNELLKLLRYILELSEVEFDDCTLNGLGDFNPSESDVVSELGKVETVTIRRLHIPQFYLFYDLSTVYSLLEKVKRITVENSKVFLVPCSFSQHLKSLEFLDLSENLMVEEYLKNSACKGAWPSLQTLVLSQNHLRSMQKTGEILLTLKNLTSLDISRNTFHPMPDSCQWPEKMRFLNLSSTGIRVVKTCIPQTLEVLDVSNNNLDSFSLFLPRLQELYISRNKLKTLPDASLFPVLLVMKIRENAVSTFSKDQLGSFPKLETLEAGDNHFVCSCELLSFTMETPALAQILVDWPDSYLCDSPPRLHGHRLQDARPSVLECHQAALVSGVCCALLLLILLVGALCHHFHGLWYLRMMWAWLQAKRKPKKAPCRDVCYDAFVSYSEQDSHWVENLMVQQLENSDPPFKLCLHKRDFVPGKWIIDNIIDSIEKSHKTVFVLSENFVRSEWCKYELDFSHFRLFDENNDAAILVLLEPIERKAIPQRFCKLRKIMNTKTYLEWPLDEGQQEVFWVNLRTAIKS
The target of experiment [3] is TLR2/6 (Homo sapiens, UniProt O60603). The experiment can be described thus: NF-κβ (ELAM)-luciferase reporter assay in transiently transfected HEK293T cells, P2C. The arrangement: expressed in transfected cells; host or cells: HEK293T, transient transfection (Superfect). Particulars: P2C 50 ng/mL 5 hrs; for IC50: NF-κβ reporter assay in HEK293T cells, 1 μM-250 μM, read-out: IC50 for human TLR2/6 signaling. The method, then:
(§1) FIG. 8. C29 inhibits hTLR2/1- and hTLR2/6-induced NF-κβ activation. (A, B) HEK293T cells were transiently transfected with reporter constructs for ELAM-luciferase, Renilla-luciferase, and either pcDNA3.1 or pcDNA3-YFP-hTLR2. Cells were pretreated for 1 hr with media, vehicle (65 μM NaOH), or C29 (50 μM) and treated with P3C or P2C (50 ng/mL) for 5 hrs in the presence of media, vehicle, or C29. Lysates were prepared and the dual-luciferase assay performed. Results are representative of 3 independent experiments each carried out in duplicate (**, p≤0.01; ***, p≤0.001).
(§2) FIG. 9. C29 is species-specific and blocks human TLR2/6 signaling, but not murine TLR2/6 signaling. (A-D) HEK293T cells were transiently transfected with reporter constructs for ELAM-luciferase, Renilla-luciferase, and pcDNA3.1 in combination with/without pcDNA3-YFP-hTLR2, pFLAG-CMV1-hTLR1, pcDNA3-CFP-hTLR6, pcDNA3.1-mTLR2-CFP, pcDNA3.1-mTLR1-YFP, or pcDNA3.1-mTLR6-CFP. Cells were pretreated for 1 hr with media, vehicle (65 μM NaOH), or C29 (50 μM) and then treated with P3C or P2C (50 ng/mL) for 5 hrs in the presence of media, vehicle, or C29. Lysates were prepared and the dual-luciferase assay performed. Panels A and B represent the mean±SEM from 3 independent experiments and panels C and D represent the mean±SEM from 2 independent experiments each carried out in duplicate (*, p≤0.05; **, p≤0.01).
FIG. 12. C29 L blocks human TLR2/1 and TLR2/6 signaling comparably to C29 in HEK293T cells. (A-D) HEK293T cells were transiently transfected with reporter constructs for ELAM-luciferase, Renilla-luciferase, and pcDNA3-YFP-hTLR2. Cells were pretreated for 1 hr with C29 or C29L (1 μM-250 μM) and treated with P3C or P2C (50 ng/mL) for 5 hrs in the presence of C29 or C29L. Lysates were prepared and dual-luciferase assay performed. Data is representative of 2 independent experiments each carried out in duplicate.
HEK293T cells were cultured and plated overnight in 12-well tissue culture plates (2×10^5 cells/well). Transfection mixtures consisted of pcDNA3-YFP-hTLR2 or pcDNA3.1 control vector (1 μg/well each), pELAM (NF-κB)-luciferase (0.2 μg/well), and pRL-TK-Renilla luciferase (0.05 μg/well). Transfection was carried out using Superfect transfection reagent, cells were recovered for 48 h, and treated for 5 h with medium or stimuli in the presence/absence of C29. Cells were lysed in a passive lysis buffer (Promega, Madison, WI) and firefly luciferase and Renilla luciferase activities were measured using the dual luciferase reporter assay system (Promega, Madison, WI). […]
(In general: A reporter such as luciferase makes a cellular process visible.)

Experiment [4] has as its target T1, TLR2/1 (Homo sapiens, UniProt O60603). Kind of experiment: NF-κβ (ELAM)-luciferase reporter assay in transiently transfected HEK293T cells, P3C. Also noted: expressed in transfected cells; host or cells: HEK293T, transient transfection (Superfect). Particulars: P3C 50 ng/mL 5 hrs; for IC50: NF-κβ reporter assay in HEK293T cells, 1 μM-250 μM, read-out: IC50 for human TLR2/1 signaling. The method, then:
as §1, §2
FIG. 12. C29 L blocks human TLR2/1 and TLR2/6 signaling comparably to C29 in HEK293T cells. (A-D) HEK293T cells were transiently transfected with reporter constructs for ELAM-luciferase, Renilla-luciferase, and pcDNA3-YFP-hTLR2. Cells were pretreated for 1 hr with C29 or C29L (1 μM-250 μM) and treated with P3C or P2C (50 ng/mL) for 5 hrs in the presence of C29 or C29L. […]
HEK293T cells were cultured and plated overnight in 12-well tissue culture plates (2×10^5 cells/well). […] Cells were lysed in a passive lysis buffer (Promega, Madison, WI) and firefly luciferase and Renilla luciferase activities were measured using the dual luciferase reporter assay system (Promega, Madison, WI). […]

The target in experiment [5] is T1, TLR2/1. The experiment can be described thus: P3C-induced IL-8 mRNA (qRT-PCR) in HEK-TLR2 stable transfectants. Also noted: expressed in transfected cells. Particulars: for percent inhibition, TLR2/1 versus TLR2/6 stimulation: HEK-TLR2 cells, human TLR2 signaling.
For experiment [6], the target named is T2, TLR4 (Mus musculus, UniProt Q9QUK6).
T2 sequence (Q9QUK6 26-835): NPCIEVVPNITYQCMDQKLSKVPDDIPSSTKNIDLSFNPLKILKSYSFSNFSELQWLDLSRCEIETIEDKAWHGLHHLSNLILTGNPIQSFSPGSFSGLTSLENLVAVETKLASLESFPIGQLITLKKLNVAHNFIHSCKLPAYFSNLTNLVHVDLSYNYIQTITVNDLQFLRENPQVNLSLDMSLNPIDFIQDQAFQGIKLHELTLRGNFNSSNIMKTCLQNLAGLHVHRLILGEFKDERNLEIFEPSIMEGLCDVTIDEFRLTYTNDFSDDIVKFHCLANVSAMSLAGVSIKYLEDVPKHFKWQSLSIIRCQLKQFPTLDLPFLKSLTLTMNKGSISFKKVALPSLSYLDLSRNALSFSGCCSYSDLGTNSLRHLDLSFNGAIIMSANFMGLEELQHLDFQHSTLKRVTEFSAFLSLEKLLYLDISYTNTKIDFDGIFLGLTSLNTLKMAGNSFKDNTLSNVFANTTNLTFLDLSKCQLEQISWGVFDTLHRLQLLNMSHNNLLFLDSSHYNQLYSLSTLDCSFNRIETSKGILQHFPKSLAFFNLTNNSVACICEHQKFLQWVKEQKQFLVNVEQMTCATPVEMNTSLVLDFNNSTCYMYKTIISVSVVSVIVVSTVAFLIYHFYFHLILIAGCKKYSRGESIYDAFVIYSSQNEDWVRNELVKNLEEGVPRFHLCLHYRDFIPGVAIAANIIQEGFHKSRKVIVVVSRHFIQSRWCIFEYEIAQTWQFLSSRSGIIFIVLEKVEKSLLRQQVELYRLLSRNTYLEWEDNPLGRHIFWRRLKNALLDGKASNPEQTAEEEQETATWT
T2 sequence (Q9JHF9 19-160 partner): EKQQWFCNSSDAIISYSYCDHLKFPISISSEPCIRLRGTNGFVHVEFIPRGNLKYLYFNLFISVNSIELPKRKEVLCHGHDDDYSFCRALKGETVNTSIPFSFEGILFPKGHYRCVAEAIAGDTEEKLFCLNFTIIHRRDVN
The experiment can be described thus: Cytokine mRNA in murine peritoneal macrophages stimulated with TLR4 agonists (LPS, HKEC).

[7] abbreviates: HEK293T expressing human TLR2, C29 50 μM.

SMILES strings stand for the structures.

T1 sequence (O60603 21-784): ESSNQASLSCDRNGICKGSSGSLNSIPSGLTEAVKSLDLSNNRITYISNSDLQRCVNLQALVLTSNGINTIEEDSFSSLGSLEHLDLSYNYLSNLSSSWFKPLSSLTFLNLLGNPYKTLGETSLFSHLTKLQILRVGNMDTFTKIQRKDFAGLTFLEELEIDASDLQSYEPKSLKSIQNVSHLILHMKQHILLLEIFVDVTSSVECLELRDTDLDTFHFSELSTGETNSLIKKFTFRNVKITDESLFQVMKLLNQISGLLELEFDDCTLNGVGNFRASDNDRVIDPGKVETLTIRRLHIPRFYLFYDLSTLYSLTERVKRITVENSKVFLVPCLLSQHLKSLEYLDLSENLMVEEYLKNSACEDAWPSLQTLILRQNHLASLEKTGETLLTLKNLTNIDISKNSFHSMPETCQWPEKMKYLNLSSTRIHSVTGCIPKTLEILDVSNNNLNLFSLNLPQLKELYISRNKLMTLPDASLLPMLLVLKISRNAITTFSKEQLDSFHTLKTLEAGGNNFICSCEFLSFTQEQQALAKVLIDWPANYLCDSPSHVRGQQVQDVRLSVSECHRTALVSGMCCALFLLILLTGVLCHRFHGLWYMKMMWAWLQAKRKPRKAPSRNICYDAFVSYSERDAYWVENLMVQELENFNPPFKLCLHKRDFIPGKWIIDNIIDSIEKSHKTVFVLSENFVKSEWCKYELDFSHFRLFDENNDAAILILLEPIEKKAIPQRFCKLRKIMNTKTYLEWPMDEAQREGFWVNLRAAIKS
Chain of TLR2/6 (Homo sapiens, UniProt O60603) (O60603 21-784): as above
Chain of TLR2/6 (Mus musculus, UniProt Q9QUN7) (Q9QUN7 25-784): as the sequence (Q9QUN7 25-784) above

Turning to `COc1cccc(C=O)c1O` [Compound C29L, ortho-vanillin], in experiment [1] (25 μM or 50 μM, P2C 100 ng/mL 1 hr), the “TLR2/6 signaling pathway (TNF-α mRNA)” value is “no effect”. Also, the “TLR2/1-induced TNF-α gene expression” value in experiment [2] (murine macrophages, 25 μM or 50 μM, P3C 50 ng/mL 1 hr) is on record as “dose-dependently inhibited”. In addition, the IC50 stood at 37.2 µM in experiment [3] and 24.2 µM in experiment [4]. Also, the “percent inhibition, TLR2/1 versus TLR2/6 stimulation” value in experiment [5] was “consistently greater when TLR2/1 is stimulated”. The “TLR4 signaling pathway (TNF-α mRNA)” value in experiment [6] (25 μM or 50 μM, LPS 100 ng/mL 1 hr) is “no effect”.
As to `COc1cccc(/C=N/c2cccc(C(=O)O)c2C)c1O` [Compound C29], the “zymosan-induced IL-1β mRNA” value in experiment [1] (C29 50 μM, zymosan 10 μg/mL 3 hrs) was “did not inhibit”. Also, the “P3C-induced IL-1β mRNA” value in experiment [2] (murine macrophages, C29 50 μM, P3C 50 ng/mL 3 hrs) was “specifically blocked”. Also, the “LTA SA-induced IL-1β mRNA” value in experiment [2] (murine macrophages, C29 50 μM, S. aureus LTA 1 μg/mL 3 hrs) is listed as “specifically blocked”. For the same molecule, the “P3C-induced TNF-α mRNA” value in experiment [2] (murine peritoneal macrophages, C29 25 μM or 50 μM, P3C 50 ng/mL 1 hr) is on record as “significantly reduced”. The “P3C-induced IL-12 p40 protein (ELISA)” value in experiment [2] (murine peritoneal macrophages, C29 50 μM, P3C 50 ng/mL 4 or 6 hrs) is reported as “significantly reduced”. Besides, the “P2C-induced NF-κβ-luciferase activity” value in experiment [3] (setting [7]) is “inhibited”. Further, the “hTLR2/6-induced NF-κβ-luciferase activity” value in experiment [3] (HEK293T transfected with human TLR2 and TLR6, C29 50 μM) is listed as “significantly inhibited”. Further, the IC50 in experiment [3] is 37.6 µM; in experiment [4] it was 19.7 µM. Further, in experiment [4] (setting [7]), the “P3C-induced NF-κβ-luciferase activity” value was “inhibited”. For the same molecule, the “P3C-induced IL-8 mRNA” value in experiment [5] (C29 10 μM or 50 μM, P3C 200 ng/mL 1 hr, HEK-TLR2 stable transfectants) is “blocked P3C- and P2C-induced IL-8 mRNA dose-dependently”. The “percent inhibition, TLR2/1 versus TLR2/6 stimulation” value in experiment [5] is “consistently greater when TLR2/1 is stimulated”. Also, the “heat-killed Escherichia coli (HKEC)-induced IL-1β mRNA” value in experiment [6] (C29 50 μM, MOI=0.1, 4 hrs, signals predominately through TLR4) is on record as “not blocked”.
